Among the data in PubChem BioAssay (NCI) are TGI values, retold here.

Each structure is given as a SMILES string.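 The compound was tested at five concentrations on cells cultured in 96-well plates, with a 48-hour exposure period. Definition used: TGI = concentration required for complete inhibition of growth.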

Some test systems named below: CAKI-1 renal; EKVX NSCLC; K-562 leukemia; NCI-H23 lung; OVCAR-3 ovarian; RPMI-8226 leukemia; SNB-19 CNS; TK-10 renal; UO-31 renal.
What all share (assay): growth of human tumour cells (NCI), 48 h

Turning to `COc1cccc(C=NC23CC4CC(CC(C4)C2)C3)c1`, the TGI with CAKI-1 renal, with EKVX NSCLC, in the assay with K-562 leukemia, in the assay on NCI-H23 lung, with OVCAR-3 ovarian and in the assay with RPMI-8226 leukemia was greater than 100 µM in each case. In addition, the TGI with SNB-19 CNS, in the assay on TK-10 renal and with UO-31 renal was greater than 100 µM in each case.
Take `CCOC(=N)CC(=O)Nc1ccccc1CC`: the TGI with CAKI-1 renal, with EKVX NSCLC, in the assay with K-562 leukemia, with NCI-H23 lung, in the assay with OVCAR-3 ovarian and in the assay with SNB-19 CNS was greater than 100 µM each time. In addition, the TGI with TK-10 renal and in the assay on UO-31 renal was greater than 100 µM each time.
Regarding `Cc1cc(O)c2c(c1)OC1(C)CCC3C(C)(C)CCCC34COC2C14` (configuration not stated), the TGI is 32.9 µM with CAKI-1 renal; 24.8 µM in the assay with EKVX NSCLC; 46.3 µM with K-562 leukemia; 35.9 µM in the assay with NCI-H23 lung; 26.8 µM with OVCAR-3 ovarian; 32.7 µM in the assay with SNB-19 CNS. This molecule also came in with a TGI with UO-31 renal of 33.2 µM.
With `CNC(=O)NCCCCC(NC(C)=O)C(=O)NCc1ccccc1` (configuration not stated), the TGI in the assay with CAKI-1 renal, in the assay with EKVX NSCLC, with NCI-H23 lung, in the assay on OVCAR-3 ovarian, with RPMI-8226 leukemia and with SNB-19 CNS was greater than 100 µM in each case. Moreover, the TGI with TK-10 renal and in the assay with UO-31 renal was greater than 100 µM throughout.
Regarding `O=C(Nc1ccccc1)N1C(c2ccccc2)=N[C@@H](c2ccccc2)[C@@H]1c1ccccc1`, the TGI is 48.7 µM with CAKI-1 renal; greater than 100 µM in the assay with EKVX NSCLC; 50.9 µM with K-562 leukemia; 55.4 µM in the assay on NCI-H23 lung; 62.8 µM in the assay with OVCAR-3 ovarian; 61.3 µM in the assay on RPMI-8226 leukemia. Besides, the figures for the TGI in the assay with SNB-19 CNS, in the assay with TK-10 renal and in the assay on UO-31 renal were 97.9 µM, 76.1 µM and 30.6 µM, respectively.
Take `COc1ccccc1/C=C(\NC(=O)c1ccccc1)c1nc2ccccc2[nH]1`: the TGI is greater than 100 µM in the assay on CAKI-1 renal; greater than 100 µM in the assay on EKVX NSCLC; greater than 100 µM in the assay on K-562 leukemia; greater than 100 µM in the assay with NCI-H23 lung; greater than 100 µM in the assay with OVCAR-3 ovarian; 51.7 µM in the assay with RPMI-8226 leukemia. The TGI in the assay with SNB-19 CNS, with TK-10 renal and in the assay with UO-31 renal was greater than 100 µM throughout.
Consider `Cc1cccc(C=NC23CC4CC(CC(C4)C2)C3)c1`, for which the TGI in the assay on CAKI-1 renal, in the assay on EKVX NSCLC, in the assay on K-562 leukemia, in the assay on NCI-H23 lung, in the assay with OVCAR-3 ovarian and in the assay with RPMI-8226 leukemia was greater than 100 µM in each case. Also, the TGI with SNB-19 CNS, with TK-10 renal and in the assay with UO-31 renal was greater than 100 µM each time.
As to `C/C(=C\c1ccccc1)C(=O)c1c(C)cc(C)cc1C`, the TGI in the assay on CAKI-1 renal, in the assay on EKVX NSCLC, in the assay with K-562 leukemia, in the assay with NCI-H23 lung, in the assay with OVCAR-3 ovarian and in the assay on RPMI-8226 leukemia was greater than 100 µM each time. Also, the TGI in the assay with SNB-19 CNS, in the assay on TK-10 renal and in the assay with UO-31 renal was greater than 100 µM in each case.
As for `O=C1N=C2N=C(c3ccc(Cl)cc3)N(c3ccc(Cl)cc3)N2Sc2ccccc21`, the TGI in the assay on CAKI-1 renal, in the assay with EKVX NSCLC, in the assay with K-562 leukemia, with NCI-H23 lung, in the assay on OVCAR-3 ovarian and in the assay with RPMI-8226 leukemia was greater than 100 µM in each case. The TGI with SNB-19 CNS, with TK-10 renal and with UO-31 renal was greater than 100 µM each time.
With `O=C(C#Cc1ccccc1)NC/C=C/c1ccccc1`, the TGI was greater than 100 µM with CAKI-1 renal; greater than 100 µM in the assay on EKVX NSCLC; greater than 100 µM with K-562 leukemia; greater than 100 µM in the assay on NCI-H23 lung; greater than 100 µM in the assay with OVCAR-3 ovarian; 79.9 µM in the assay on SNB-19 CNS. The TGI in the assay on TK-10 renal and with UO-31 renal was greater than 100 µM in each case.
On to `C[C@]12CC[C@H](OC(=O)Nc3ccccc3)CC1=CC[C@@H]1C2CC[C@]2(C)/C(=N/OC(=O)Nc3ccccc3)CCC12` (some centres not stated), for which the TGI is 4.96 µM with CAKI-1 renal; greater than 100 µM with EKVX NSCLC; greater than 100 µM with K-562 leukemia; greater than 100 µM in the assay on NCI-H23 lung; greater than 100 µM in the assay with OVCAR-3 ovarian; greater than 100 µM in the assay with RPMI-8226 leukemia. In addition, the TGI is greater than 100 µM in the assay on SNB-19 CNS, greater than 100 µM in the assay on TK-10 renal and 7.91 µM with UO-31 renal.
Turning to `O=C(Cc1nc2ccccc2s1)C(=O)Nc1cccc(C(F)(F)F)c1`, the TGI with CAKI-1 renal, with EKVX NSCLC, with NCI-H23 lung, in the assay on OVCAR-3 ovarian, in the assay on SNB-19 CNS and with TK-10 renal was greater than 100 µM in each case. This molecule showed a TGI in the assay with UO-31 renal greater than 100 µM.
With `COC(OC)c1cccnc1C`, the TGI with CAKI-1 renal, with EKVX NSCLC, in the assay with K-562 leukemia, with NCI-H23 lung, in the assay with OVCAR-3 ovarian and in the assay with SNB-19 CNS was greater than 100 µM each time. Moreover, the TGI in the assay on TK-10 renal and with UO-31 renal was greater than 100 µM throughout.
As for `O=C1C(=O)N(c2cc(Cl)ccc2Cl)C(=O)C(=O)C1c1nc2ccccc2s1`, the TGI with CAKI-1 renal, in the assay with EKVX NSCLC, in the assay with K-562 leukemia, in the assay on NCI-H23 lung, in the assay on OVCAR-3 ovarian and with RPMI-8226 leukemia was greater than 100 µM each time. Also, the TGI in the assay on SNB-19 CNS is greater than 100 µM; in the assay on TK-10 renal, greater than 100 µM; in the assay with UO-31 renal, 90.8 µM.
Regarding `c1ccc(N2CCN(CCN3CCc4c([nH]c5ccccc45)C3c3cccnc3)CC2)cc1` (configuration not stated), the TGI with CAKI-1 renal, with EKVX NSCLC, in the assay on K-562 leukemia, with NCI-H23 lung, in the assay with OVCAR-3 ovarian and with RPMI-8226 leukemia was greater than 100 µM each time. Moreover, the TGI in the assay on SNB-19 CNS, in the assay on TK-10 renal and in the assay on UO-31 renal was greater than 100 µM each time.
